Test results as given in US9512113B2, “N-(tetrazol-5-yl)- and N-(triazol-5-yl)arylcarboxylic thioamides and use thereof as herbicides” (BAYER CROPSCIENCE AG, priority 2012, dated 2016).

Key:
Type in all cases: in vivo
Polygonum convolvulus [1] = test: Pre-emergence herbicidal action against harmful plants
Source text: (§1) Seeds of monocotyledonous and dicotyledonous weed plants and crop plants are placed in wood-fiber pots in sandy loam and covered with soil. The compounds according to the invention, formulated in the form of wettable powders (WP) or as emulsion concentrates (EC), are then applied as aqueous suspension or emulsion at a water application rate of 600 to 800 I/ha (converted) with the addition of 0.2% of wetting agent to the surface of the covering soil. After the treatment, the pots are placed in a greenhouse and kept under good growth conditions for the test plants. The damage to the test plants is assessed visually after a test period of 3 weeks by comparison with untreated controls (herbicidal activity in percent (%): 100% action=the plants have died, 0% action=like control plants). Here, for example, the compounds Nos 1-8, 1-26 and 4-7, at an application rate of 80 g/ha, show an activity of at least 80% against Alopecurus myosuroides, Avena fatua, Cyperus serotinus, Echinochloa crus galli, Lolium multiflorum, Setaria viridis, Abutilon theophrasti, Amaranthus retroflexus, Matricaria inodora, Pharbitis purpureum, Stellaria media, Viola tricolor and Veronica persica.
(§2) These comparative experiments were carried out under the conditions mentioned above by the pre-emergence method and the post-emergence method. In the tables below, the top line in each case states the compound according to the invention, and the bottom line states the compound from WO 2012/028579 A1.

Avena fatua [2] = test: as above; details: Table C, 320 g/ha
Source text: as §1, §2

Zea mays (corn) [3] = test: Pre-emergence action, damage to crop plants; details: Table C, 320 g/ha
Source text: as §1, §2

Pharbitis purpureum [4] = test: Pre-emergence herbicidal action against harmful plants
Source text: as §1, §2

[5] = tested on: Triticum aestivum (wheat); test: Pre-emergence action, damage to crop plants; details: Table D, 320 g/ha
Source text: as §1, §2

Abutilon theophrasti = test: Pre-emergence herbicidal action against harmful plants
Source text: as §1, §2

Amaranthus retroflexus [6] = test: as above; details: Table E, 320 g/ha
Source text: as §1, §2

[7] = tested on: Brassica napus (oilseed rape); test: Pre-emergence action, damage to crop plants
Source text: as §1, §2

Polygonum convolvulus [8] = test: Post-emergence herbicidal action against harmful plants
Experimental: (§3) Seeds of monocotyledonous and dicotyledonous weed and crop plants are placed in sandy loam in wood-fiber pots, covered with soil and cultivated in a greenhouse under good growth conditions. 2 to 3 weeks after sowing, the test plants are treated at the one-leaf stage. The compounds according to the invention, formulated in the form of wettable powders (WP) or as emulsion concentrates (EC), are then sprayed as aqueous suspension or emulsion at a water application rate of 600 to 800 I/ha (converted) with the addition of 0.2% of wetting agent onto the green parts of the plants. After the test plants have been left to stand in the greenhouse under optimal growth conditions for about 3 weeks, the action of the preparations is assessed visually in comparison to untreated controls (herbicidal action in percent (%): 100% action=the plants have died, 0% action=like control plants). Here, for example, the compounds Nos 1-8 and 1-83, at an application rate of 80 g/ha, show an activity of at least 80% against Alopecurus myosuroides, Avena fatua, Cyperus serotinus, Echinochloa crus galli, Lolium multiflorum, Setaria viridis, Abutilon theophrasti, Amaranthus retroflexus, Matricaria inodora, Pharbitis purpureum, Polygonum convolvulus, Stellaria media, Viola tricolor and Veronica persica.
as §2

Pharbitis purpureum [9] = test: as above; details: Table G, 5 g/ha
Experimental: as §3, §2

Oryza sativa (rice) [10] = test: Post-emergence action, damage to crop plants; details: Table G, 5 g/ha
Experimental: as §3, §2

[11] = tested on: Triticum aestivum (wheat); test: Post-emergence action, damage to crop plants
Experimental: as §3, §2

Cyperus serotinus = test: Pre-emergence herbicidal action against harmful plants; details: Table B, 20 g/ha
Source text: as §1, §2

Echinochloa crus galli [12] = test: as above; details: 20 g/ha
Source text: as §1, §2

Oryza sativa (rice) [13] = test: Pre-emergence action, damage to crop plants; details: 20 g/ha
Source text: as §1, §2

Setaria viridis = test: Post-emergence herbicidal action against harmful plants; details: Table H, 5 g/ha
Experimental: as §3, §2

Echinochloa crus galli [14] = test: as above; details: Table H, 5 g/ha
Experimental: as §3, §2

Amaranthus retroflexus [15] = test: as above; details: Table H, 5 g/ha
Experimental: as §3, §2

Alopecurus myosuroides = test: as above; details: Table I, 80 g/ha
Experimental: as §3, §2

Lolium multiflorum = test: as above; details: 80 g/ha
Experimental: as §3, §2

Zea mays (corn) [16] = test: Post-emergence action, damage to crop plants; details: 80 g/ha
Experimental: as §3, §2

Avena fatua [17] = test: Post-emergence herbicidal action against harmful plants; details: Table K, 80 g/ha
Experimental: as §3, §2

Cn1nnnc1NC(=S)c1ccc(S(C)(=O)=O)c(COCC(F)(F)F)c1Cl
Herbicidal efficacy against POLCO (Polygonum convolvulus [1]; Table C, 320 g/ha): 90% | Herbicidal efficacy against AVEFA (Avena fatua [2]): 90% | Damage to crop plants ZEAMX (Zea mays (corn) [3]): 0%

Cn1nnnc1NC(=O)c1ccc(S(C)(=O)=O)c(COCC(F)(F)F)c1Cl
Herbicidal efficacy against POLCO (Polygonum convolvulus [1]; Table C, 320 g/ha): 50% | Herbicidal efficacy against AVEFA (Avena fatua [2]): 70% | Damage to crop plants ZEAMX (Zea mays (corn) [3]): 20%

Cc1nc(C(F)(F)F)ccc1C(=S)Nc1nnnn1C
Herbicidal efficacy against POLCO (Polygonum convolvulus [1]; Table D, 320 g/ha): 80% | Herbicidal efficacy against PHBPU (Pharbitis purpureum [4]; Table D, 320 g/ha): 80% | Damage to crop plants TRZAS [5]: 0%

Cc1nc(C(F)(F)F)ccc1C(=O)Nc1nnnn1C
Herbicidal efficacy against POLCO (Polygonum convolvulus [1]; Table D, 320 g/ha): 60% | Herbicidal efficacy against PHBPU (Pharbitis purpureum [4]; Table D, 320 g/ha): 60% | Damage to crop plants TRZAS [5]: 20%

Cc1c(C(=S)Nc2ncnn2C)ccc(S(C)(=O)=O)c1S(C)(=O)=O
Herbicidal efficacy against ABUTH (Abutilon theophrasti; Table E, 320 g/ha): 80% | Herbicidal efficacy against AMARE (Amaranthus retroflexus [6]): 90% | Damage to crop plants BRSNW ([7]; Table E, 320 g/ha): 0%

Cc1c(C(=O)Nc2ncnn2C)ccc(S(C)(=O)=O)c1S(C)(=O)=O
Herbicidal efficacy against ABUTH (Abutilon theophrasti; Table E, 320 g/ha): 0% | Herbicidal efficacy against AMARE (Amaranthus retroflexus [6]): 40% | Damage to crop plants BRSNW ([7]; Table E, 320 g/ha): 20%

CCOc1c(S(C)(=O)=O)ccc(C(=S)Nc2nnnn2C)c1Cl
Herbicidal efficacy against POLCO (Polygonum convolvulus [8]; Table G, 5 g/ha): 60% | Herbicidal efficacy against PHBPU (Pharbitis purpureum [9]): 80% | Damage to crop plants ORYSA (Oryza sativa (rice) [10]): 10% | Damage to crop plants TRZAS ([11]; Table G, 5 g/ha): 0%

CCOc1c(S(C)(=O)=O)ccc(C(=O)Nc2nnnn2C)c1Cl
Herbicidal efficacy against POLCO (Polygonum convolvulus [8]; Table G, 5 g/ha): 40% | Herbicidal efficacy against PHBPU (Pharbitis purpureum [9]): 20% | Damage to crop plants ORYSA (Oryza sativa (rice) [10]): 40% | Damage to crop plants TRZAS ([11]; Table G, 5 g/ha): 30%

Cn1nnnc1NC(=S)c1ccc(C(F)(F)F)cc1S(C)(=O)=O
Herbicidal efficacy against POLCO (Polygonum convolvulus [8]; Table J, 80 g/ha): 90% | Damage to crop plants TRZAS ([11]; Table J, 80 g/ha): 20%

Cn1nnnc1NC(=O)c1ccc(C(F)(F)F)cc1S(C)(=O)=O
Herbicidal efficacy against POLCO (Polygonum convolvulus [8]; Table J, 80 g/ha): 70% | Damage to crop plants TRZAS ([11]; Table J, 80 g/ha): 60%

Cc1c(C(=S)Nc2nnnn2C)ccc(S(C)(=O)=O)c1Cl [drawing 8]
Herbicidal efficacy against ABUTH (Abutilon theophrasti; Table A, 20 g/ha): 90% | Herbicidal efficacy against PHBPU (Pharbitis purpureum [4]; Table A, 20 g/ha): 20% | Damage to crop plants BRSNW ([7]; Table A, 20 g/ha): 0%

Cc1c(C(=O)Nc2nnnn2C)ccc(S(C)(=O)=O)c1Cl [drawing 9]
Herbicidal efficacy against ABUTH (Abutilon theophrasti; Table A, 20 g/ha): 70% | Herbicidal efficacy against PHBPU (Pharbitis purpureum [4]; Table A, 20 g/ha): 0% | Damage to crop plants BRSNW ([7]; Table A, 20 g/ha): 20%

CCCn1nnnc1NC(=S)c1ccc(C(F)(F)F)c(S(C)(=O)=O)c1C [drawing 10]
Herbicidal efficacy against CYPES (Cyperus serotinus): 100% | Herbicidal efficacy against ECHCG (Echinochloa crus galli [12]; Table B): 20% | Damage to crop plants ORYSA (Oryza sativa (rice) [13]; Table B): 0%

CCCn1nnnc1NC(=O)c1ccc(C(F)(F)F)c(S(C)(=O)=O)c1C [drawing 11]
Herbicidal efficacy against CYPES (Cyperus serotinus): 0% | Herbicidal efficacy against ECHCG (Echinochloa crus galli [12]; Table B): 0% | Damage to crop plants ORYSA (Oryza sativa (rice) [13]; Table B): 50%

Cc1c(C(=S)Nc2nnnn2C)ccc(C(F)(F)F)c1S(C)(=O)=O [drawing 18]
Herbicidal efficacy against POLCO (Polygonum convolvulus [1]; Table F, 20 g/ha): 60% | Herbicidal efficacy against ECHCG (Echinochloa crus galli [12]; Table F): 100% | Damage to crop plants ORYSA (Oryza sativa (rice) [13]; Table F): 20% | Damage to crop plants BRSNW ([7]; Table F, 20 g/ha): 0%

Cc1c(C(=O)Nc2nnnn2C)ccc(C(F)(F)F)c1S(C)(=O)=O [drawing 19]
Herbicidal efficacy against POLCO (Polygonum convolvulus [1]; Table F, 20 g/ha): 0% | Herbicidal efficacy against ECHCG (Echinochloa crus galli [12]; Table F): 20% | Damage to crop plants ORYSA (Oryza sativa (rice) [13]; Table F): 50% | Damage to crop plants BRSNW ([7]; Table F, 20 g/ha): 30%

Cc1c(C(=S)Nc2nnnn2C)ccc(S(C)(=O)=O)c1Cl [drawing 22]
Herbicidal efficacy against SETVI (Setaria viridis): 40% | Herbicidal efficacy against ECHCG (Echinochloa crus galli [14]): 70% | Herbicidal efficacy against AMARE (Amaranthus retroflexus [15]): 40%

Cc1c(C(=O)Nc2nnnn2C)ccc(S(C)(=O)=O)c1Cl [drawing 23]
Herbicidal efficacy against SETVI (Setaria viridis): 0% | Herbicidal efficacy against ECHCG (Echinochloa crus galli [14]): 10% | Herbicidal efficacy against AMARE (Amaranthus retroflexus [15]): 20%

CCCn1nnnc1NC(=S)c1ccc(C(F)(F)F)c(S(C)(=O)=O)c1C [drawing 24]
Herbicidal efficacy against ALOMY (Alopecurus myosuroides): 80% | Herbicidal efficacy against LOLMU (Lolium multiflorum; Table I): 20% | Damage to crop plants ZEAMX (Zea mays (corn) [16]; Table I): 0%

CCCn1nnnc1NC(=O)c1ccc(C(F)(F)F)c(S(C)(=O)=O)c1C [drawing 25]
Herbicidal efficacy against ALOMY (Alopecurus myosuroides): 30% | Herbicidal efficacy against LOLMU (Lolium multiflorum; Table I): 0% | Damage to crop plants ZEAMX (Zea mays (corn) [16]; Table I): 20%

Cc1c(C(=S)Nc2nnnn2C)ccc(C(F)(F)F)c1S(C)(=O)=O [drawing 28]
Herbicidal efficacy against AVEFA (Avena fatua [17]): 90% | Herbicidal efficacy against LOLMU (Lolium multiflorum; Table K): 90% | Damage to crop plants ZEAMX (Zea mays (corn) [16]; Table K): 50%

Cc1c(C(=O)Nc2nnnn2C)ccc(C(F)(F)F)c1S(C)(=O)=O [drawing 29]
Herbicidal efficacy against AVEFA (Avena fatua [17]): 70% | Herbicidal efficacy against LOLMU (Lolium multiflorum; Table K): 70% | Damage to crop plants ZEAMX (Zea mays (corn) [16]; Table K): 70%
